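The compound was tested at five concentrations on cells cultured in 96-well plates, with a 48-hour exposure period. GI50 marks 50% less growth. TGI is the concentration that stops growth completely.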
Legend:
Assay in all cases: NCI-60 cell line screen, 48 h
[1] = system: HT29 colon
[2] = system: A549 NSCLC
[3] = system: BT-549 breast
[4] = system: OVCAR-8 ovarian
[5] = system: K-562 leukemia
[6] = system: HS 578T breast
[7] = system: SK-MEL-2 melanoma
[8] = system: SNB-75 CNS
[9] = system: SF-539 CNS
[10] = system: MOLT-4 leukemia
[11] = system: SK-MEL-5 melanoma
[12] = system: CAKI-1 renal
[13] = system: U251 CNS
[14] = system: HCT-15 colon
[15] = system: NCI-H522 lung
[16] = system: HOP-92 NSCLC
[17] = system: CCRF-CEM leukemia
[18] = system: SK-MEL-28 melanoma
[19] = system: HL-60(TB) leukemia
[20] = system: DU-145 prostate
[21] = system: RXF 393 renal
[22] = system: TK-10 renal
[23] = system: MDA-MB-231 breast
[24] = system: PC-3 prostate
[25] = system: NCI-H226 lung
[26] = system: NCI-H460 lung
[27] = system: SR leukemia
[28] = system: SN12C renal
[29] = system: HCC-2998 colon
[30] = system: IGROV1 ovarian
[31] = system: HOP-62 NSCLC
[32] = system: SF-268 CNS
[33] = system: SK-OV-3 ovarian
[34] = system: SW-620 colon
[35] = system: UACC-257 melanoma
[36] = system: MCF7 breast
[37] = system: OVCAR-3 ovarian
[38] = system: EKVX NSCLC
[39] = system: COLO 205 colon
[40] = system: SF-295 CNS
[41] = system: HCT-116 colon
[42] = system: SNB-19 CNS
[43] = system: NCI-H23 lung
[44] = system: LOX IMVI melanoma
[45] = system: MDA-MB-468 breast
[46] = system: OVCAR-4 ovarian
[47] = system: UO-31 renal
[48] = system: NCI/ADR-RES ovarian
[49] = system: OVCAR-5 ovarian
[50] = system: A498 renal
[51] = system: 786-0 renal
[52] = system: MDA-MB-435
[53] = system: MALME-3M melanoma
[54] = system: M14 melanoma
[55] = system: KM12 colon
[56] = system: UACC-62 melanoma
[57] = system: ACHN renal
[58] = system: RPMI-8226 leukemia
[59] = system: T-47D breast

O=C(Nc1cccc(C(F)(F)F)c1)c1cncc(C#Cc2cnc3ccc(N4CCOCC4)nn23)c1
GI50 [1]: 3.12 µM
TGI [1]: 20.8 µM
GI50 [2]: 8.38 µM
TGI [2]: > 86.8 µM
GI50 [3]: 5.13 µM
TGI [3]: 26.3 µM
GI50 [4]: 5.9 µM
TGI [4]: 82.2 µM
GI50 [5]: 1.89 µM
TGI [5]: > 86.8 µM
GI50 [6]: 1.62 µM
TGI [6]: 5.45 µM
GI50 [7]: 3.87 µM
TGI [7]: 13.6 µM
GI50 [8]: 1.76 µM
TGI [8]: 7.71 µM
GI50 [9]: 1.11 µM
TGI [9]: 3.01 µM
GI50 [10]: 14.6 µM
TGI [10]: > 86.8 µM
GI50 [11]: 11.2 µM
TGI [11]: 22.8 µM
GI50 [12]: 4.23 µM
TGI [12]: 47.4 µM
GI50 [13]: 15.4 µM
TGI [13]: 67.2 µM
GI50 [14]: 6.58 µM
TGI [14]: 51.2 µM
GI50 [15]: 9.08 µM
TGI [15]: 24.5 µM
GI50 [16]: 1.24 µM
TGI [16]: 3.47 µM
GI50 [17]: 5.21 µM
TGI [17]: 48.8 µM
GI50 [18]: 4.85 µM
TGI [18]: 23 µM
GI50 [19]: 0.834 µM
TGI [19]: 42.3 µM
GI50 [20]: 4.3 µM
TGI [20]: 80 µM
GI50 [21]: 2.36 µM
TGI [21]: 6.36 µM
GI50 [22]: 6.98 µM
TGI [22]: 51.9 µM
GI50 [23]: 1.13 µM
TGI [23]: 9.33 µM
GI50 [24]: 10.8 µM
TGI [24]: 72.6 µM
GI50 [25]: 1.7 µM
TGI [25]: > 86.8 µM
GI50 [26]: 11 µM
TGI [26]: 27.4 µM
GI50 [27]: 2.94 µM
TGI [27]: > 86.8 µM
GI50 [28]: 2.49 µM
TGI [28]: 25.3 µM
GI50 [29]: 5.97 µM
TGI [29]: 35.6 µM
GI50 [30]: 2.08 µM
TGI [30]: 12.4 µM
GI50 [31]: 2.39 µM
TGI [31]: 35.4 µM
GI50 [32]: 4.58 µM
TGI [32]: 34.8 µM
GI50 [33]: 7.01 µM
TGI [33]: 48.8 µM
GI50 [34]: 3.03 µM
TGI [34]: > 86.8 µM
GI50 [35]: 10.1 µM
TGI [35]: 56.6 µM
GI50 [36]: 2.76 µM
TGI [36]: 26.4 µM
GI50 [37]: 8.91 µM
TGI [37]: 52.6 µM
GI50 [38]: 4.49 µM
TGI [38]: 21 µM
GI50 [39]: 3.2 µM
TGI [39]: 11.4 µM
GI50 [40]: 11 µM
TGI [40]: 29.8 µM
GI50 [41]: 1.92 µM
TGI [41]: 13.4 µM
GI50 [42]: 17.1 µM
TGI [42]: 49.8 µM
GI50 [43]: 2.38 µM
TGI [43]: 11.7 µM
GI50 [44]: 2.55 µM
TGI [44]: 11.6 µM
GI50 [45]: 12.8 µM
TGI [45]: 27 µM
GI50 [46]: 15 µM
TGI [46]: > 86.8 µM
GI50 [47]: 3.31 µM
TGI [47]: 19.2 µM
GI50 [48]: 9.21 µM
TGI [48]: 44.6 µM
GI50 [49]: 2.74 µM
TGI [49]: 38.6 µM
GI50 [50]: 5.53 µM
TGI [50]: 16.6 µM
GI50 [51]: 8.11 µM
TGI [51]: 42.9 µM
GI50 [52]: 4.33 µM
TGI [52]: 18.2 µM
GI50 [53]: 4.24 µM
TGI [53]: 18.7 µM
GI50 [54]: 3.47 µM
TGI [54]: 14.8 µM
GI50 [55]: 0.00868 µM
TGI [55]: 14.1 µM
GI50 [56]: 2.74 µM
TGI [56]: 13.4 µM
GI50 [57]: 3.67 µM
TGI [57]: 42.3 µM
GI50 [58]: 12.5 µM
TGI [58]: 44.9 µM
GI50 [59]: 9.23 µM
TGI [59]: 62.1 µM

Cc1ccc(C(SCCNCc2cc(N(C)C)ccn2)(c2ccccc2)c2ccccc2)cc1
GI50 [1]: 1.98 µM
TGI [1]: 4.17 µM
GI50 [2]: 4.13 µM
TGI [2]: 18 µM
GI50 [3]: 2.94 µM
TGI [3]: 7.87 µM
GI50 [4]: 3.3 µM
TGI [4]: 20 µM
GI50 [5]: 2.22 µM
TGI [5]: 7.73 µM
GI50 [6]: 2.58 µM
TGI [6]: 10.5 µM
GI50 [8]: 1.96 µM
TGI [8]: 12.4 µM
GI50 [9]: 2.2 µM
TGI [9]: 4.89 µM
GI50 [10]: 2.38 µM
TGI [10]: 6.9 µM
GI50 [11]: 3.59 µM
TGI [11]: 12.8 µM
GI50 [12]: 3.28 µM
TGI [12]: 15.5 µM
GI50 [13]: 2.69 µM
TGI [13]: 10.4 µM
GI50 [14]: 0.496 µM
TGI [14]: 1.76 µM
GI50 [15]: 2.34 µM
TGI [15]: 6.63 µM
GI50 [16]: 1.85 µM
TGI [16]: 8.82 µM
GI50 [17]: 2.03 µM
TGI [17]: 8.53 µM
GI50 [18]: 5.56 µM
TGI [18]: 17.8 µM
GI50 [19]: 1.73 µM
TGI [19]: 4.19 µM
GI50 [20]: 3.54 µM
TGI [20]: 12.5 µM
GI50 [21]: 3.03 µM
TGI [21]: 12.5 µM
GI50 [22]: 4.68 µM
TGI [22]: 17.3 µM
GI50 [23]: 2.35 µM
TGI [23]: 6.33 µM
GI50 [24]: 2.63 µM
TGI [24]: 11.9 µM
GI50 [25]: 14 µM
TGI [25]: 28.1 µM
GI50 [26]: 3.02 µM
TGI [26]: 9.9 µM
GI50 [27]: 1.34 µM
TGI [27]: 9.42 µM
GI50 [28]: 3.94 µM
TGI [28]: 14.6 µM
GI50 [29]: 1.42 µM
TGI [29]: 2.75 µM
GI50 [30]: 3.81 µM
TGI [30]: 16.1 µM
GI50 [31]: 3.26 µM
TGI [31]: 14.3 µM
GI50 [32]: 4.46 µM
TGI [32]: 18.7 µM
GI50 [33]: 3.84 µM
TGI [33]: 14.4 µM
GI50 [34]: 2.52 µM
TGI [34]: 11.4 µM
GI50 [35]: 4.27 µM
TGI [35]: 15.4 µM
GI50 [36]: 0.373 µM
TGI [36]: 1.57 µM
GI50 [37]: 2.65 µM
TGI [37]: 10.3 µM
GI50 [38]: 1.49 µM
TGI [38]: 3.9 µM
GI50 [39]: 1.7 µM
TGI [39]: 3.17 µM
GI50 [40]: 1.46 µM
TGI [40]: 2.86 µM
GI50 [41]: 1.23 µM
TGI [41]: 5.22 µM
GI50 [42]: 4.42 µM
TGI [42]: 16.3 µM
GI50 [43]: 1.72 µM
TGI [43]: 3.32 µM
GI50 [44]: 1.42 µM
TGI [44]: 2.77 µM
GI50 [45]: 2.35 µM
TGI [45]: 6.87 µM
GI50 [46]: 4.4 µM
TGI [46]: 20.3 µM
GI50 [47]: 2.96 µM
TGI [47]: 16.2 µM
GI50 [49]: 5.19 µM
TGI [49]: 17.9 µM
GI50 [50]: 13.4 µM
TGI [50]: 27 µM
GI50 [51]: 1.88 µM
TGI [51]: 3.83 µM
GI50 [52]: 1.55 µM
TGI [52]: 4.67 µM
GI50 [53]: 1.75 µM
TGI [53]: 3.29 µM
GI50 [54]: 1.55 µM
TGI [54]: 3.5 µM
GI50 [55]: 3.34 µM
TGI [55]: 12 µM
GI50 [56]: 9.9 µM
TGI [56]: 21.8 µM
GI50 [57]: 4.72 µM
TGI [57]: 17.3 µM
GI50 [58]: 2.08 µM
TGI [58]: 5.48 µM
GI50 [59]: 2.81 µM
TGI [59]: 11 µM

From PubChem BioAssay (NCI)
